The test system of assay [1] is Cryptococcus neoformans. As to the kind of experiment: Antifungal activity against Cryptococcus neoformans H99 assessed as reduction in fungal growth. It is filed as functional.
The subject of assay [2] is [Candida] auris. As to the kind of experiment: Antifungal activity against Candida auris 0029 assessed as reduction in fungal growth. It is filed as functional. The conditions noted are these: Candidozyma auris.
The test system of assay [3] is [Candida] auris. As to the kind of experiment: Antifungal activity against Candida auris ATCC 15448 assessed as reduction in fungal growth. The format is functional. The note with it: Candidozyma auris.
Assay [4] has as its system Cryptococcus neoformans. Briefly: Antifungal activity against Cryptococcus neoformans H99 assessed as inhibition of cell growth at 16 microg/ml measured for 72 hrs. It is filed as functional, organism-based. The note with it: dose 16.0 µg/ml.
The test system of assay [5] is [Candida] auris. As to the kind of experiment: Antifungal activity against Candida auris 0029 assessed as inhibition of cell growth at 16 microg/ml measured for 72 hrs. The conditions noted are these: Candidozyma auris, dose 16.0 µg/ml. It is filed as functional.
Assay [6] relates to Cryptococcus neoformans. Briefly: Fungicidal activity against Cryptococcus neoformans H99. The format is functional.
Assay [7] deals with [Candida] auris. Briefly: Fungicidal activity against Candida auris 0029. The format is functional. The conditions noted are these: Candidozyma auris.
In assay [8] the test system is [Candida] auris. Briefly: Antibiofilm activity against Candida auris 0029 assessed as inhibition of biofilm formation at 64 microg/ml incubated for 24 hrs by XTT reduction assay. It is filed as functional. The conditions noted are these: Candidozyma auris, dose 64.0 µg/ml. On the technique in general: Tetrazolium dyes change colour on reduction, which living cells bring about.

In assay [9] the test system is Cryptococcus neoformans. Briefly: Antibiofilm activity against Cryptococcus neoformans H99 assessed as inhibition of capsule formation at 4 microg/ml incubated for 48 hrs by laser confocal microscopic analysis. The format is functional, organism-based. The note with it: dose 4.0 µg/ml.
Assay [10] has as its system Cryptococcus neoformans. Briefly: Antifungal activity against Cryptococcus neoformans H99 assessed as reduction in fungal growth incubated for 72 hrs in presence of 1 uM Fe2+. It is filed as functional.
Assay [11] deals with Cryptococcus neoformans. Briefly: Antifungal activity against Cryptococcus neoformans H99 assessed as reduction in fungal growth incubated for 72 hrs in presence of 5 uM Fe2+. The format is functional.
Assay [12] concerns Cryptococcus neoformans. Briefly: Antifungal activity against Cryptococcus neoformans H99 assessed as reduction in fungal growth incubated for 72 hrs in presence of 10 uM Fe2+. The format is functional.
The subject of assay [13] is Cryptococcus neoformans. As to the kind of experiment: Antifungal activity against Cryptococcus neoformans H99 assessed as reduction in fungal growth incubated for 72 hrs in presence of 20 uM Fe2+. The format is functional.
In assay [14] the test system is Cryptococcus neoformans. As to the kind of experiment: Antifungal activity against Cryptococcus neoformans H99 assessed as reduction in fungal growth incubated for 72 hrs in presence of 40 uM Fe2+. The format is functional.
Assay [15] concerns Cryptococcus neoformans. As to the kind of experiment: Antifungal activity against Cryptococcus neoformans H99 assessed as reduction in fungal growth incubated for 72 hrs in presence of 80 uM Fe2+. It is filed as functional.
Assay [16] relates to [Candida] auris. As to the kind of experiment: Effect on sterol composition in Candida auris 0029 assessed as ergosterol content at 1 microg/ml measured after 24 hrs by GC-MS analysis (reference value: 100 %). The conditions noted are these: dose 1 µg/ml. It is filed as functional, Candidozyma auris.
Assay [17] has as its system Cryptococcus neoformans. Briefly: Effect on sterol composition in Cryptococcus neoformans H99 assessed as ergosterol content at 1 microg/ml measured after 24 hrs by GC-MS analysis (reference value: 58.53%). It is filed as functional. The note with it: dose 1 µg/ml.
The subject of assay [18] is Cryptococcus neoformans. As to the kind of experiment: Effect on sterol composition in Cryptococcus neoformans H99 assessed as lanosterol content at 1 microg/ml measured after 24 hrs by GC-MS analysis. It is filed as functional. The note with it: dose 1 µg/ml.
The subject of assay [19] is Cryptococcus neoformans. As to the kind of experiment: Effect on sterol composition in Cryptococcus neoformans H99 assessed as eburicol content at 1 microg/ml measured after 24 hrs by GC-MS analysis. It is filed as functional. The note with it: dose 1 µg/ml.
For assay [20], the system named is Cryptococcus neoformans. As to the kind of experiment: Effect on sterol composition in Cryptococcus neoformans H99 assessed as other sterols content at 1 microg/ml measured after 24 hrs by GC-MS analysis (reference value: 41.47%). The conditions noted are these: dose 1 µg/ml. It is filed as functional.

The MIC80 is the lowest concentration that inhibits either 80% of growth or 80% of the strains tested, depending on the study. One may read the MIC as the smallest concentration in the dilution series that meets the test's criterion for growth inhibition.

Converted amounts (≈) assume the structure as drawn. The source made the active and inactive calls. Some results are limits rather than exact numbers.

For `OC(Cn1cncn1)(Cn1cncn1)c1ccc(F)cc1F` [FLUCONAZOLE], the MIC80 with Cryptococcus neoformans [1] is 2 µg/mL (≈ 6.53 µM); in [Candida] auris [2], above 64 µg/mL; in assay [Candida] auris [3] it was 16 µg/mL (≈ 52.2 µM). The outcome in the assay on Cryptococcus neoformans [4] was Active. Moreover, the outcome (in [Candida] auris [5]; in the assay on Cryptococcus neoformans [6]; in [Candida] auris [7]; in assay [Candida] auris [8]; with Cryptococcus neoformans [9]) was inactive. For the same compound, the MIC in the assay with Cryptococcus neoformans [10] was 2 µg/mL; in the assay with Cryptococcus neoformans [11] it was 2 µg/mL; in the assay with Cryptococcus neoformans [12], 4 µg/mL; in the assay on Cryptococcus neoformans [13], 4 µg/mL; with Cryptococcus neoformans [14], 4 µg/mL; with Cryptococcus neoformans [15], 4 µg/mL. The Activity in assay [Candida] auris [16] is listed as 100%; in the assay with Cryptococcus neoformans [17], 42.51%; in the assay with Cryptococcus neoformans [18] it was 4.24%; with Cryptococcus neoformans [19], 48.28%; in the assay on Cryptococcus neoformans [20], 4.97%.

(Values after ChEMBL document CHEMBL6087415, “Discovery of new fungal jumonji H3K27 demethylase inhibitors for the treatment of Cryptococcus neoformans and Candida auris infections” (Eur J Med Chem, 2025).)
